According to patent US5216022A, “Aromatic esters of phenylenedialkanoates as inhibitors of human neutrophil elastase” (Cortech, Inc., priority 1991, dated 1993):

biological target: T1, human neutrophil elastase (HNE) (Homo sapiens, UniProt P08246); test: Potency (IC50 determination) against human neutrophil elastase, chromogenic substrate N-methoxysuccinyl-ala-ala-pro-val-pNA, 405 nm; type: biochemical; details: pH 7.7, 7 min incubation at room temperature
T1 sequence (P08246 30-267): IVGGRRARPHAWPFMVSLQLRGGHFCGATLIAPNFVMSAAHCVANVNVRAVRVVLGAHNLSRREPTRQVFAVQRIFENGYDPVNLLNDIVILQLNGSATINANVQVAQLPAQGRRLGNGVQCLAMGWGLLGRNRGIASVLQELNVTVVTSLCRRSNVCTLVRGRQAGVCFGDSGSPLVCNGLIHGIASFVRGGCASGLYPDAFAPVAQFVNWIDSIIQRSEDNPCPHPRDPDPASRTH
Protocol: A) 0.075M sodium phosphate, 20% dimethyl sulfoxide (DMSO),pH 7.7=substrate and inhibitor buffer
B) 0.075M sodium phosphate no DMSO,pH7.7=inhibitor buffer
C) 10 mM human neutrophil elastase (HNE) substrate=N-methoxysuccinyl-ala-ala-pro-val-pNA in DMSO
D) 0.01 sodium acetate, pH 5.5=enzyme buffer (storage)
E) HNE (1 mg) dissolved in 1 mL of […] for storage at -20° C.
Make a 10 mM stock of the inhibitor in DMSO. Dilute an aliquot (10 μL) up to 1.0 mL in reagent A (100 μM). Serially dilute 100 μL of the 100 μM in reagent A. Apply 100 μL of the diluted material to the wells of a 96-well plate. Dilute an aliquot of reagent F 1:150 in reagent D, apply 50 μL aliquots to the indicator wells and incubate 7 minutes at room temperature.
The HNE substrate solution is made by taking 100 μl of reagent C into 500 μL of reagent A and 400 μL of reagent B. After the 7 minutes of incubation, the substrate (50 μL) is applied to each well. The HNE catalyzed reaction is then monitored spectrophotometrically at 405 nm using an ELISA plate reader machine (UVMAX, Molecular Devices) which processes the raw data with an on-board kinetics program. The enzyme activity is plotted against different inhibitor concentrations and IC50 value is determined by using a curve fitting software program.

Compound	IC50
CCC(C(=O)Oc1ccc([S+]([O-])C(C)(C)C(=O)O)cc1)c1ccc(C(CC)C(=O)Oc2ccc([S+]([O-])C(C)(C)C(=O)O)cc2)cc1 (stereo not drawn) [Compound 8]	74 nM
CCC(C(=O)Oc1ccc(SCC(C)(C)C(=O)O)cc1)c1ccc(C(CC)C(=O)Oc2ccc(SCC(C)(C)C(=O)O)cc2)cc1 (stereo not drawn) [Compound 4]	120 nM
CCC(C(=O)Oc1ccc(S(C)(=O)=O)cc1)c1ccc(C(CC)C(=O)Oc2ccc(S(C)(=O)=O)cc2)cc1 (stereo not drawn) [Compound 3]	62 nM
CCC(C(=O)Oc1ccc(SC)cc1)c1ccc(C(CC)C(=O)Oc2ccc(SC)cc2)cc1 (stereo not drawn) [Compound 1, Bis(4-Methylmercaptophenyl)2'-(1,4-phenylene)dibutyrate]	8440 nM
CCC(C(=O)Oc1ccc([S+]([O-])CC(C)(C)C(=O)O)cc1)c1ccc(C(CC)C(=O)Oc2ccc([S+]([O-])CC(C)(C)C(=O)O)cc2)cc1 (stereo not drawn) [Compound 5]	40 nM
CCC(C(=O)Oc1ccc(S(=O)(=O)CC(C)(C)C(=O)O)cc1)c1ccc(C(CC)C(=O)Oc2ccc(S(=O)(=O)CC(C)(C)C(=O)O)cc2)cc1 (stereo not drawn) [Compound 6]	28 nM
CCC(C(=O)Oc1ccc([S+](C)[O-])cc1)c1ccc(C(CC)C(=O)Oc2ccc([S+](C)[O-])cc2)cc1 (stereo not drawn) [Compound 2]	224 nM

Further lines, results first:

IC50	Compound
36 nM	CCC(C(=O)Oc1ccc(S(=O)(=O)CC(C)(C)C(=O)O)cc1)c1cccc(C(CC)C(=O)Oc2ccc(S(=O)(=O)CC(C)(C)C(=O)O)cc2)c1 (stereo not drawn) [Compound 21]
835 nM	CC(C)(C(=O)Oc1ccc(SCC(=O)O)cc1)c1ccc(C(C)(C)C(=O)Oc2ccc(SCC(=O)O)cc2)cc1 [Compound 13]
77 nM	CC(C)(C(=O)Oc1ccc(S(=O)(=O)CC(=O)O)cc1)c1ccc(C(C)(C)C(=O)Oc2ccc(S(=O)(=O)CC(=O)O)cc2)cc1 [Compound 15]
64 nM	CCC(C(=O)Oc1ccnc(SC)n1)c1ccc(C(CC)C(=O)Oc2ccnc(SC)n2)cc1 (stereo not drawn) [Compound 28]
253 nM	CC(C)(CSc1ccc(OC(=O)C(C)(C)c2ccc(C(C)(C)C(=O)Oc3ccc(SCC(C)(C)C(=O)O)cc3)cc2)cc1)C(=O)O [Compound 10]
23 nM	CC(C)(C[S+]([O-])c1ccc(OC(=O)C(C)(C)c2ccc(C(C)(C)C(=O)Oc3ccc([S+]([O-])CC(C)(C)C(=O)O)cc3)cc2)cc1)C(=O)O (stereo not drawn) [Compound 11]
37 nM	CCC(C(=O)Oc1ccc(S(=O)(=O)C(C)(C)C(=O)O)cc1)c1ccc(C(CC)C(=O)Oc2ccc(S(=O)(=O)C(C)(C)C(=O)O)cc2)cc1 (stereo not drawn) [Compound 9]
198 nM	CCC(C(=O)Oc1ccc(SCC(C)(C)C(=O)O)cc1)c1cccc(C(CC)C(=O)Oc2ccc(SCC(C)(C)C(=O)O)cc2)c1 (stereo not drawn) [Compound 19]
